Data on 10 compounds can be found in US20260092071A1, “COMPOUNDS AND COMPOSITIONS AS SMARCA2/4 DEGRADERS AND USES THEREOF” (REGENTS OF THE UNIVERSITY OF MICHIGAN, priority 2022, published 2026).

Structures are written as SMILES. Some results are limits rather than exact numbers.

What all share (type): cell-based
In experiment [1] the target is SMARCA4 (Homo sapiens, UniProt P51532). The experiment is described as follows: HiBit assay in engineered HT1080 CRISPR knock-in cell, 6 hrs (B series), SMARCA4. The conditions noted are these: 6 hrs incubation; for DC50: HT1080 CRISPR knock-in cells, read-out: SMARC A4 HT1080 HiBit DC50; for Dmax: HT-1080, HT1080 CRISPR knock-in cells, read-out: SMARC A4 HT1080 HiBit Dmax(%). How it is done: (§1) The HiBit assay was performed using engineered HT1080 CRISPR knock-in cell utilizing the Nano-Glo HiBiT Lytic Detection System from Promega, Cat #N3040. Compounds were transferred, 25 nL DMSO or test compounds (final DMSO @ 0.1%) to intermediate plates (Corning3570) using ECHO550. Cells were seeded onto compounds at 2000 cells/25 μL/well and incubated for 6 hrs in a tissue culture incubator at 37° C. and 5% CO2. The LgBiT Protein was diluted at 1:100 and the Nano-Glo® HiBIT Lytic Substrate 1:50 into an appropriate volume of room temperature using the Nano-Glo® HiBiT Lytic Buffer. At the end of compound incubation time, 15 ul of the detection reagent was added to each well (without LgBiT for negative control wells) using the Thermo Scientific multidrop combi. The plate was shaken for 10 mins at RT using Combi. After briefly centrifugation (2000 rpm 1 mins), plate was read on Envision (Ultrasensitive luminescence model).
On the technique in general: The HiBiT peptide binds its large partner to form an active luciferase.

Experiment [2] addresses T1, SMARCA2 (Homo sapiens, UniProt P51531). The experiment is described as follows: HiBit assay in engineered HT1080 CRISPR knock-in cell, 6 hrs (B series), SMARCA2. The conditions noted are these: 6 hrs incubation; for DC50: HT1080 CRISPR knock-in cells, read-out: SMARC A2 HT1080 HiBit DC50; for Dmax: HT-1080, HT1080 CRISPR knock-in cells, read-out: SMARC A2 HT1080 HiBit Dmax (%). How it is done: as §1

The target in experiment [3] is T1, SMARCA2. Put plainly: HiBiT assay for protein degradation, Hela SMARCA2-HiBiT cells (A series).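 For SMARC A2 Hela HiBit Dmax (%): 24 h compound treatment.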 Also noted: Hela cells were genetically modified via CRISPR/Cas9 to fuse HiBiT to the carboxy terminus of SMARCA2; host or cells: HeLa (CRISPR/Cas9 HiBiT knock-in). The following applies: Hela SMARCA2-HiBiT cells, 24 hours treatment; for Dmax: read-out: SMARC A2 Hela HiBit Dmax (%); for DC50: read-out: SMARC A2 Hela HiBit DC50. Here is the method:
Hela cells were genetically modified via CRISPR/Cas9 to fuse HiBiT to the carboxy terminus of SMARCA2 (Promega CS302365) or SMARCA4 (Promega CS3023225). Cells were cultured in DMEM containing 10% FBS and 1% (Vol:Vol) penicillin-streptomycin. […] At the end of experiment, levels of SMARCA2 or SMARCA4 expression were assessed with Nano-Glo® HiBiT Lytic Detection Assay (Promega N3050). IC50 was obtained using the GraphPad Prism data analysis software.

T1 sequence (P51531 whole entry): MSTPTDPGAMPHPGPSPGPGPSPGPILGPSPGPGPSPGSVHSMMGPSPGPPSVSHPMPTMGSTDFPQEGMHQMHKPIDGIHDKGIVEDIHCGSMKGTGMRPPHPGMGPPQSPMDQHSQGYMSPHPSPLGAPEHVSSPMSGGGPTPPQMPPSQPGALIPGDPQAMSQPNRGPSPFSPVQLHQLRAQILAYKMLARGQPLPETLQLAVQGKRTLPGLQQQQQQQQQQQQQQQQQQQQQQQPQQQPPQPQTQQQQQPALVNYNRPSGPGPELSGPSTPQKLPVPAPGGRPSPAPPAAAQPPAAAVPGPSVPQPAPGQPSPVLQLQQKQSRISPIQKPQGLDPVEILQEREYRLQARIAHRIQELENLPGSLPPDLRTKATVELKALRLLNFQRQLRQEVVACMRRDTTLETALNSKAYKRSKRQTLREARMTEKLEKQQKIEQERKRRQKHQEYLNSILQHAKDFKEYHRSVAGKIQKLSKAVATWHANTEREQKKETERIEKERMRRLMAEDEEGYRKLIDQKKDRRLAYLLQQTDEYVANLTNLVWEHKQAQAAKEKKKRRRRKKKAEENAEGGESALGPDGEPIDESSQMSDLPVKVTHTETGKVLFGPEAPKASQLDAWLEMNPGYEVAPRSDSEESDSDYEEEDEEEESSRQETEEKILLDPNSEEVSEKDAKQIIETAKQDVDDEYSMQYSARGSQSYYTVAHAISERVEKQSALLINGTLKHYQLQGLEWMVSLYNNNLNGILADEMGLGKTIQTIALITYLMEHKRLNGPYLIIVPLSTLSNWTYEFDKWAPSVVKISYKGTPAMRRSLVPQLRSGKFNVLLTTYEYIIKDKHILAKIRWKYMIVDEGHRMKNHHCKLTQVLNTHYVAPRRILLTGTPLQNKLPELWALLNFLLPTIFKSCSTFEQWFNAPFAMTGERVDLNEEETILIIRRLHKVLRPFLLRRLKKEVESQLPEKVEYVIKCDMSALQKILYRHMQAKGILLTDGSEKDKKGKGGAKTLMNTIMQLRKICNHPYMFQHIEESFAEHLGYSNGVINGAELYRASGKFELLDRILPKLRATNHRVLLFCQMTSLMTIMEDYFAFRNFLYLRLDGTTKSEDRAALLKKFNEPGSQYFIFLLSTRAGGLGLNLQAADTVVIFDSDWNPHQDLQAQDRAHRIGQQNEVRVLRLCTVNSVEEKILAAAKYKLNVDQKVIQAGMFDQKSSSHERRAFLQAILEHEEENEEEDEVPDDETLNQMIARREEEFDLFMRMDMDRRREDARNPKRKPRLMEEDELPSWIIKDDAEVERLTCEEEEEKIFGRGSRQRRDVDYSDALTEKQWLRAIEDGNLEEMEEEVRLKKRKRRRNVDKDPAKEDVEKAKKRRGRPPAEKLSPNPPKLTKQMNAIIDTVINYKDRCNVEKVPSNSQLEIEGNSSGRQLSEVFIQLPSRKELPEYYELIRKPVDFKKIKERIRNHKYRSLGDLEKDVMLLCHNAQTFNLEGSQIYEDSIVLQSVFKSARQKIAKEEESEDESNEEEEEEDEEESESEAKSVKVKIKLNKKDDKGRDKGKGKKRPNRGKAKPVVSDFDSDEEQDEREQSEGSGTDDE
Chain of SMARCA4 (P51532 whole entry): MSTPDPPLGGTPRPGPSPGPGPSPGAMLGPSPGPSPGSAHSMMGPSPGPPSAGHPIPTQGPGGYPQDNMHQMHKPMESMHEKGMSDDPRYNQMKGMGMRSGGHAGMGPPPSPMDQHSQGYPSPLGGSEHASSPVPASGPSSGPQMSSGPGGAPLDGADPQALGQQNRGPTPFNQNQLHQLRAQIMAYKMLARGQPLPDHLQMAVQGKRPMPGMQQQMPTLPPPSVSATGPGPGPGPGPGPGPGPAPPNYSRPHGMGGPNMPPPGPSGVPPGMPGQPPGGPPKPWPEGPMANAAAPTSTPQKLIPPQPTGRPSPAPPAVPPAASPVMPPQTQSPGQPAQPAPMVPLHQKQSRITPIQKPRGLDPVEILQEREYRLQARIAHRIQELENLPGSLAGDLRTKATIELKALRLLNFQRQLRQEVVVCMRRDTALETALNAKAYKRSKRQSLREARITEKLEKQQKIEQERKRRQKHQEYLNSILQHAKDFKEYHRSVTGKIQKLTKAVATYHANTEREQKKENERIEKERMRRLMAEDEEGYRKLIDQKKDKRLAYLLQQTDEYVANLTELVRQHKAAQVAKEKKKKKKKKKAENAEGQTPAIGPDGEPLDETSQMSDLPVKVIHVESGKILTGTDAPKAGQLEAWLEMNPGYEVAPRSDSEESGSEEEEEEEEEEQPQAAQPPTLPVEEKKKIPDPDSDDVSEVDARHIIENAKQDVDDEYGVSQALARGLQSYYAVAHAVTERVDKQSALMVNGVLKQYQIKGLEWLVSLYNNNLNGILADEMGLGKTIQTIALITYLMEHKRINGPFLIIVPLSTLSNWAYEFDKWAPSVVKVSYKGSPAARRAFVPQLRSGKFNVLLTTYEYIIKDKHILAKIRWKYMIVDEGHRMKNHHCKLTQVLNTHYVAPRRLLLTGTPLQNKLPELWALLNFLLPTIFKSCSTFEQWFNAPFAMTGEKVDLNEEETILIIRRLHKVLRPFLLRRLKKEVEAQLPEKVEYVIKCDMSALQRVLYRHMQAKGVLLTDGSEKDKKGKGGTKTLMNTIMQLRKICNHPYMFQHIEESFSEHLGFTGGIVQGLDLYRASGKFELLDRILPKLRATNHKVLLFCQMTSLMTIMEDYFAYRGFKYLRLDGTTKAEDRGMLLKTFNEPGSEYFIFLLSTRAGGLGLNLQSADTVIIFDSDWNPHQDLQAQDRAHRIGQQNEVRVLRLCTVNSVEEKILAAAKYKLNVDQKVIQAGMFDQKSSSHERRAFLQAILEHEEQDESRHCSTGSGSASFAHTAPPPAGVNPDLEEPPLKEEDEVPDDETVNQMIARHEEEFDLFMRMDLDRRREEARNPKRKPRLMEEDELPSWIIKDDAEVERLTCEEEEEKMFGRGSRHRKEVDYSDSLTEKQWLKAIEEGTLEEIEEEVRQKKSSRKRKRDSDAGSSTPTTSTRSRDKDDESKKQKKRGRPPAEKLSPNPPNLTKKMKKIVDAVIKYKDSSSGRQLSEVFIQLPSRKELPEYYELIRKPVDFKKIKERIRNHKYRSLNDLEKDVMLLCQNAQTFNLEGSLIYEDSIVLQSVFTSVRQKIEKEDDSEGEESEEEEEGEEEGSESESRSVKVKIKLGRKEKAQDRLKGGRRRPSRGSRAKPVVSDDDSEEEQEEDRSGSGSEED

`CC#Cc1ccc([C@H](C)NC(=O)[C@@H]2C[C@@H](O)CN2C(=O)[C@H](C(C)C)n2cc([C@H]3CC[C@H](CN4CCC(c5ccc6c(c5)-n5c(nc(=O)c7c(Cl)cccc75)C6(C)C)CC4)CC3)nn2)cc1` [Compound B131, (2S,4R)-1-((S)-2-(4-((1r,4S)-4-((4-(4-chloro-7,7-dimethyl-5-oxo-5,7-dihydroindolo[1,2-a]quinazolin-10-yl)piperidin-1-yl)methyl)cyclohexyl)-1H-1,2,3-triazol-1-yl)-3-methylbutanoyl)-4-hydroxy-N-((S)-1-(4-(prop-1-yn-1-yl)phenyl)ethyl)pyrrolidine-2-carboxamide]: the DC50 in experiment [1] and in experiment [2] was < 100 nM each time. For the same compound, the Dmax in experiment [1] was 50 to 69%; in experiment [2], > 90%.
On to `C#Cc1ccc([C@H](CN2CCOCC2)NC(=O)[C@@H]2C[C@@H](O)CN2C(=O)[C@@H](n2cc([C@H]3CC[C@H](CN4CCC(c5ccc6c(c5)-n5c(nc(=O)c7c(Cl)cccc75)C6(C)C)CC4)CC3)nn2)C(C)(C)C)cc1` [Compound B102, (2S,4R)-1-((S)-2-(4-((1r,4S)-4-((4-(4-chloro-7,7-dimethyl-5-oxo-5,7-dihydroindolo[1,2-a]quinazolin-10-yl)piperidin-1-yl)methyl)cyclohexyl)-1H-1,2,3-triazol-1-yl)-3,3-dimethylbutanoyl)-N—((R)-1-(4-ethynylphenyl)-2-morpholinoethyl)-4-hydroxypyrrolidine-2-carboxamide], for which the DC50 in experiment [1] and in experiment [2] was < 100 nM throughout. In addition, the Dmax in experiment [1] was 70 to 90%; in experiment [2] it was > 90%.
With `Cc1nc(C)c(-c2ccc([C@H](C)NC(=O)[C@@H]3C[C@@H](O)CN3C(=O)[C@@H](c3cc(N4CCC(c5cccc6c5C(C)(C)c5nc(=O)c7c(Cl)cccc7n5-6)CC4)no3)C(C)C)cc2)s1` [Compound B167, (2S,4R)-1-(2-(3-(4-(4-chloro-7,7-dimethyl-5-oxo-5,7-dihydroindolo[1,2-a]quinazolin-8-yl)piperidin-1-yl)isoxazol-5-yl)-3-methylbutanoyl)-N-((S)-1-(4-(2,4-dimethylthiazol-5-yl)phenyl)ethyl)-4-hydroxypyrrolidine-2-carboxamide], in experiment [1], the DC50 lay within 100 to 500 nM and the Dmax was < 50%. For the same compound, in experiment [2], the DC50 was < 100 nM and the Dmax was 70 to 90%.
For the compound `Cc1ncsc1-c1ccc([C@H](C)NC(=O)[C@@H]2C[C@@H](O)CN2C(=O)[C@@H](c2cc(OCCN3CCC(c4ccc5c(c4)-n4c(nc(=O)c6c(Cl)cccc64)C5(C)C)CC3)no2)C(C)C)cc1` [Compound B32, (2S,4R)-1-((R)-2-(3-(2-(4-(4-chloro-7,7-dimethyl-5-oxo-5,7-dihydroindolo[1,2-a]quinazolin-10-yl)piperidin-1-yl)ethoxy)isoxazol-5-yl)-3-methylbutanoyl)-4-hydroxy-N-((S)-1-(4-(4-methylthiazol-5-yl)phenyl)ethyl)pyrrolidine-2-carboxamide], in experiment [1], the DC50 was < 100 nM and the Dmax is < 50%. In experiment [2], the DC50 was < 100 nM and the Dmax was > 90%.
For the compound `Cc1ncsc1-c1ccc([C@H](CN2CCOCC2)NC(=O)[C@@H]2C[C@@H](O)CN2C(=O)[C@@H](n2cc([C@H]3CC[C@H](CN4CCC(c5ccc6c(c5)-n5c(nc(=O)c7c(Br)cccc75)C65CCCCC5)CC4)CC3)nn2)C(C)(C)C)cc1` [Compound B112, (2S,4R)-1-((S)-2-(4-((1r,4S)-4-((4-(4′-bromo-5′-oxo-5′H-spiro[cyclohexane-1,7′-indolo[1,2-a]quinazolin]-10′-yl)piperidin-1-yl)methyl)cyclohexyl)-1H-1,2,3-triazol-1-yl)-3,3-dimethylbutanoyl)-4-hydroxy-N-((R)-1-(4-(4-methylthiazol-5-yl)phenyl)-2-morpholinoethyl)pyrrolidine-2-carboxamide], in experiment [2], the DC50 was < 100 nM and the Dmax is > 90%.
On to `Cc1ncsc1-c1ccc([C@H](CCN2CC(C)(F)C2)NC(=O)[C@@H]2C[C@@H](O)CN2C(=O)[C@@H](n2cc([C@H]3CC[C@H](CN4CCC(c5ccc6c(c5)-n5c(nc(=O)c7c(Cl)cccc75)C65CCCCC5)CC4)CC3)nn2)C(C)(C)C)cc1` [Compound A79, (2S,4R)-1-((S)-2-(4-((1r,4S)-4-((4-(4′-chloro-5′-oxo-5′H-spiro[cyclohexane-1,7′-indolo[1,2-a]quinazolin]-10′-yl)piperidin-1-yl)methyl)cyclohexyl)-1H-1,2,3-triazol-1-yl)-3,3-dimethylbutanoyl)-N—((S)-3-(3-fluoro-3-methylazetidin-1-yl)-1-(4-(4-methylthiazol-5-yl)phenyl)propyl)-4-hydroxypyrrolidine-2-carboxamide], for which, in experiment [3], the Dmax fell in the range of 70 to 90% and the DC50 is < 10 nM.
`Cc1ncsc1-c1ccc([C@H](CN2CCOCC2)NC(=O)[C@@H]2C[C@@H](O)CN2C(=O)[C@@H](n2cc([C@H]3CC[C@H](CN4CCC(c5ccc6c(n5)-n5c(nc(=O)c7c(Br)cccc75)C65CCCCC5)CC4)CC3)nn2)C(C)(C)C)cc1` [Compound A52, (2S,4R)-1-((S)-2-(4-((1r,4S)-4-((4-(4′-bromo-5′-oxo-5′H-spiro[cyclohexane-1,7′-pyrido[3′,2′: 4,5]pyrrolo[1,2-a]quinazolin]-10′-yl)piperidin-1-yl)methyl)cyclohexyl)-1H-1,2,3-triazol-1-yl)-3,3-dimethylbutanoyl)-4-hydroxy-N—((R)-1-(4-(4-methylthiazol-5-yl)phenyl)-2-morpholinoethyl)pyrrolidine-2-carboxamide]: in experiment [3], the Dmax lay in the range of 70 to 90% and the DC50 was < 100 nM.
Take `Cc1ncsc1-c1ccc([C@H](CN2CCOCC2)NC(=O)[C@@H]2C[C@@H](O)CN2C(=O)[C@@H](n2cc(C3CCC(CN4CCC(c5ccc6c(c5)-n5c(nc(=O)c7ccccc75)C65CCCCC5)CC4)CC3)nn2)C(C)(C)C)cc1` (stereo partly drawn) [Compound A170, (2S,4R)-1-((S)-3,3-dimethyl-2-(4-(4-((4-(5′-oxo-5′H-spiro[cyclohexane-1,7′-indolo[1,2-a]quinazolin]-10′-yl)piperidin-1-yl)methyl)cyclohexyl)-1H-1,2,3-triazol-1-yl)butanoyl)-4-hydroxy-N—((R)-1-(4-(4-methylthiazol-5-yl)phenyl)-2-morpholinoethyl)pyrrolidine-2-carboxamide]: in experiment [3], the Dmax was < 50% and the DC50 is > 1000 nM.
Regarding `Cc1ncsc1-c1ccc([C@H](CN2CCOCC2)NC(=O)[C@@H]2C[C@@H](O)CN2C(=O)[C@@H](n2cc(C3CCN(CC4CCN(c5ccc6c(c5)-n5c(nc(=O)c7c(Br)cccc75)C65CCCCC5)CC4)CC3)nn2)C(C)(C)C)cc1` [Compound A169, (2S,4R)-1-((S)-2-(4-(1-((1-(4′-bromo-5′-oxo-5′H-spiro[cyclohexane-1,7′-indolo[1,2-a]quinazolin]-10′-yl)piperidin-4-yl)methyl)piperidin-4-yl)-1H-1,2,3-triazol-1-yl)-3,3-dimethylbutanoyl)-4-hydroxy-N—((R)-1-(4-(4-methylthiazol-5-yl)phenyl)-2-morpholinoethyl)pyrrolidine-2-carboxamide], the DC50 in experiment [3] was > 1000 nM.
As for `Cc1ncsc1-c1ccc([C@H](CN2CCOCC2)NC(=O)[C@@H]2C[C@@H](O)CN2C(=O)[C@@H](n2cc([C@H]3CC[C@H](CN4CCC(c5ccc6c(n5)-n5c(nc(=O)c7c(Cl)cccc75)C65CCCCC5)CC4)CC3)nn2)C(C)(C)C)cc1` [Compound A77, (2S,4R)-1-((S)-2-(4-((1r,4S)-4-((4-(4′-chloro-5′-oxo-5′H-spiro[cyclohexane-1,7′-pyrido[3′,2′: 4,5]pyrrolo[1,2-a]quinazolin]-10′-yl)piperidin-1-yl)methyl)cyclohexyl)-1H-1,2,3-triazol-1-yl)-3,3-dimethylbutanoyl)-4-hydroxy-N—((R)-1-(4-(4-methylthiazol-5-yl)phenyl)-2-morpholinoethyl)pyrrolidine-2-carboxamide], in experiment [3], the Dmax was 70 to 90% and the DC50 lay within 10 to 100 nM.
